In patent US20190315823A1, “SMALL CATIONIC ANTI-BIOFILM AND IDR PEPTIDES” (priority 2013, published 2019):
Ends that are not written are not given here.

What follows are substances tested on methicillin resistant Staphylococcus aureus (MRSA) biofilm (assay: not given). Conditions: approximate peptide concentration […] (around 3 μg/ml); compared to untreated samples.
Summary of the method: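 Peptide was present from inoculation onward, with bacteria seeded at 1/100 from overnight cultures into BM2 biofilm medium or Luria Broth. Crystal violet staining of surface-attached cells (A595) quantified biofilm reduction at 22–46 h. K. pneumoniae was additionally screened in a real-time Bioflux flow device for some peptides.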
In the case of “1018-G1: single substituted 1018 peptide (GRLIVAVRIWRR-NH2) [Peptide 1018-G1]”, the “% Biofilm inhibition” value is reported as 38%. For “HH2-K11: single substituted HH2 peptide (VQLRIRVAVIKA-NH2)”, the “% Biofilm inhibition” value was 43%. “HH2-I12: single substituted HH2 peptide (VQLRIRVAVIRI-NH2)” was tested, and the “% Biofilm inhibition” value was 65%. For “1018-V3: single substituted 1018 peptide (VRVIVAVRIWRR-NH2) [Peptide 1018-V3]”, the “% Biofilm inhibition” value was 76%. With “HH2-L8: single substituted HH2 peptide (VQLRIRVLVIRA-NH2)” the “% Biofilm inhibition” value was 50%. In the case of “1002-V5: single substituted 1002 peptide (VQRWVIVWRIRK-NH2) [Peptide 1002-V5]”, the “% Biofilm inhibition” value is reported as 75%. “HH2-G6: single substituted HH2 peptide (VQLRIGVAVIRA-NH2)” was tested, and the “% Biofilm inhibition” value was 33%. With “HH2-L1: single substituted HH2 peptide (LQLRIRVAVIRA-NH2)” the “% Biofilm inhibition” value was 72%. For “1018-L1: single substituted 1018 peptide (LRLIVAVRIWRR-NH2) [Peptide 1018-L1]”, the “% Biofilm inhibition” value was 72%. For “1002-K8: single substituted 1002 peptide (VQRWLIVKRIRK-NH2) [Peptide 1002-K8]”, the “% Biofilm inhibition” value was 0%. With “1002-A10: single substituted 1002 peptide (VQRWLIVWRARK-NH2) [Peptide 1002-A10]” the “% Biofilm inhibition” value was 45%. In the case of “1018-K2: single substituted 1018 peptide (VKLIVAVRIWRR-NH2) [Peptide 1018-K2]”, the “% Biofilm inhibition” value is reported as 68%.

What follows are substances tested on human peripheral blood mononuclear cells (MCP-1) (assay: SPOT-synthesized derivative screen: production of chemokine MCP-1). Conditions: Table 12; No LPS; human PBMC, peptide at ~18-24 μM.
Type: cell-based
Summary of the method: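 MCP-1 was quantified by capture ELISA in cleared culture supernatants of treated human peripheral blood mononuclear cells. Cells came from heparinized volunteer blood via Ficoll gradient and were seeded at 0.75 to 1×10^6 cells/ml (37 °C, 5% CO2).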
In the case of “1018-G1: single substituted 1018 peptide (GRLIVAVRIWRR-NH2) [Peptide 1018-G1]”, the “Fold increase in MCP1 cf. untreated cells” value (from here on “Fold increase”) is reported as 216. For “HH2-K11: single substituted HH2 peptide (VQLRIRVAVIKA-NH2)”, the “Fold increase” value was 18. “HH2-I12: single substituted HH2 peptide (VQLRIRVAVIRI-NH2)” was tested, and the “Fold increase” value was 18. With “1018-V3: single substituted 1018 peptide (VRVIVAVRIWRR-NH2) [Peptide 1018-V3]” the “Fold increase” value was 16. In the case of “HH2-L8: single substituted HH2 peptide (VQLRIRVLVIRA-NH2)”, the “Fold increase” value is reported as 107. With “1002-V5: single substituted 1002 peptide (VQRWVIVWRIRK-NH2) [Peptide 1002-V5]” the “Fold increase” value was 38.2. In the case of “HH2-G6: single substituted HH2 peptide (VQLRIGVAVIRA-NH2)”, the “Fold increase” value is reported as 8.6. In the case of “HH2-L1: single substituted HH2 peptide (LQLRIRVAVIRA-NH2)”, the “Fold increase” value is reported as 4.8. For “1018-L1: single substituted 1018 peptide (LRLIVAVRIWRR-NH2) [Peptide 1018-L1]”, the “Fold increase” value was 4.1. For “1002-K8: single substituted 1002 peptide (VQRWLIVKRIRK-NH2) [Peptide 1002-K8]”, the “Fold increase” value was 0.9. With “1002-A10: single substituted 1002 peptide (VQRWLIVWRARK-NH2) [Peptide 1002-A10]” the “Fold increase” value was 2.0. For “1018-K2: single substituted 1018 peptide (VKLIVAVRIWRR-NH2) [Peptide 1018-K2]”, the “Fold increase” value was 1.5.

Same assay, conditions: Table 12; No LPS; human PBMC, peptide at ~18-24 μM; background subtracted 139 (HH2 derivatives), 170 (1018 derivatives), 242 (1002 and hybrid peptides) pg/ml
In the case of “1018-G1: single substituted 1018 peptide (GRLIVAVRIWRR-NH2) [Peptide 1018-G1]”, the “MCP1” value is reported as 36611 pg/mL. For “HH2-K11: single substituted HH2 peptide (VQLRIRVAVIKA-NH2)”, the “MCP1” value was 2884 pg/mL. For “HH2-I12: single substituted HH2 peptide (VQLRIRVAVIRI-NH2)”, the “MCP1” value was 2845 pg/mL. For “1018-V3: single substituted 1018 peptide (VRVIVAVRIWRR-NH2) [Peptide 1018-V3]”, the “MCP1” value was 2550 pg/mL. For “HH2-L8: single substituted HH2 peptide (VQLRIRVLVIRA-NH2)”, the “MCP1” value was 17953 pg/mL. With “1002-V5: single substituted 1002 peptide (VQRWVIVWRIRK-NH2) [Peptide 1002-V5]” the “MCP1” value was 9022.6 pg/mL. With “HH2-G6: single substituted HH2 peptide (VQLRIGVAVIRA-NH2)” the “MCP1” value was 1287 pg/mL. In the case of “HH2-L1: single substituted HH2 peptide (LQLRIRVAVIRA-NH2)”, the “MCP1” value is reported as 654 pg/mL. In the case of “1018-L1: single substituted 1018 peptide (LRLIVAVRIWRR-NH2) [Peptide 1018-L1]”, the “MCP1” value is reported as 531 pg/mL. For “1002-K8: single substituted 1002 peptide (VQRWLIVKRIRK-NH2) [Peptide 1002-K8]”, the “MCP1” value was -36.2 pg/mL. With “1002-A10: single substituted 1002 peptide (VQRWLIVWRARK-NH2) [Peptide 1002-A10]” the “MCP1” value was 245.4 pg/mL. For “1018-K2: single substituted 1018 peptide (VKLIVAVRIWRR-NH2) [Peptide 1018-K2]”, the “MCP1” value was 92 pg/mL.

Each substance was assayed on LPS-stimulated human peripheral blood mononuclear cells (IL1-β) (assay: not given). Conditions: Table 12; cells stimulated with 10 ng/ml LPS.
Type: cell-based
With “1018-G1: single substituted 1018 peptide (GRLIVAVRIWRR-NH2) [Peptide 1018-G1]” the “Fold change in IL1β relative to no peptide LPS stimulated cells” value was 0.10. With “HH2-K11: single substituted HH2 peptide (VQLRIRVAVIKA-NH2)” the “Fold change in IL1β relative to no peptide LPS stimulated cells” value was 1.21. “HH2-I12: single substituted HH2 peptide (VQLRIRVAVIRI-NH2)” was tested, and the “Fold change in IL1β relative to no peptide LPS stimulated cells” value was 0.51. With “1018-V3: single substituted 1018 peptide (VRVIVAVRIWRR-NH2) [Peptide 1018-V3]” the “Fold change in IL1β relative to no peptide LPS stimulated cells” value was 0.22. For “HH2-L8: single substituted HH2 peptide (VQLRIRVLVIRA-NH2)”, the “Fold change in IL1β relative to no peptide LPS stimulated cells” value was 0.55. For “1002-V5: single substituted 1002 peptide (VQRWVIVWRIRK-NH2) [Peptide 1002-V5]”, the “Fold change in IL1β relative to no peptide LPS stimulated cells” value was 0.18. For “HH2-G6: single substituted HH2 peptide (VQLRIGVAVIRA-NH2)”, the “Fold change in IL1β relative to no peptide LPS stimulated cells” value was 1.08. With “HH2-L1: single substituted HH2 peptide (LQLRIRVAVIRA-NH2)” the “Fold change in IL1β relative to no peptide LPS stimulated cells” value was 0.94. “1018-L1: single substituted 1018 peptide (LRLIVAVRIWRR-NH2) [Peptide 1018-L1]” was tested, and the “Fold change in IL1β relative to no peptide LPS stimulated cells” value was 0.21. In the case of “1002-K8: single substituted 1002 peptide (VQRWLIVKRIRK-NH2) [Peptide 1002-K8]”, the “Fold change in IL1β relative to no peptide LPS stimulated cells” value is reported as 0.66. With “1002-A10: single substituted 1002 peptide (VQRWLIVWRARK-NH2) [Peptide 1002-A10]” the “Fold change in IL1β relative to no peptide LPS stimulated cells” value was 0.05. With “1018-K2: single substituted 1018 peptide (VKLIVAVRIWRR-NH2) [Peptide 1018-K2]” the “Fold change in IL1β relative to no peptide LPS stimulated cells” value was 0.10.

Same assay, conditions: Table 12; cells stimulated with 10 ng/ml LPS; LPS alone 1313 (HH2 derivatives), 1927 (1018 derivatives), 2455 (1002 and hybrid peptides) pg/ml
With “1018-G1: single substituted 1018 peptide (GRLIVAVRIWRR-NH2) [Peptide 1018-G1]” the “IL1β Production” value was 127 pg/mL. “HH2-K11: single substituted HH2 peptide (VQLRIRVAVIKA-NH2)” was tested, and the “IL1β Production” value was 1593 pg/mL. With “HH2-I12: single substituted HH2 peptide (VQLRIRVAVIRI-NH2)” the “IL1β Production” value was 667 pg/mL. For “1018-V3: single substituted 1018 peptide (VRVIVAVRIWRR-NH2) [Peptide 1018-V3]”, the “IL1β Production” value was 295 pg/mL. With “HH2-L8: single substituted HH2 peptide (VQLRIRVLVIRA-NH2)” the “IL1β Production” value was 725 pg/mL. For “1002-V5: single substituted 1002 peptide (VQRWVIVWRIRK-NH2) [Peptide 1002-V5]”, the “IL1β Production” value was 440 pg/mL. In the case of “HH2-G6: single substituted HH2 peptide (VQLRIGVAVIRA-NH2)”, the “IL1β Production” value is reported as 1423 pg/mL. For “HH2-L1: single substituted HH2 peptide (LQLRIRVAVIRA-NH2)”, the “IL1β Production” value was 1234 pg/mL. In the case of “1018-L1: single substituted 1018 peptide (LRLIVAVRIWRR-NH2) [Peptide 1018-L1]”, the “IL1β Production” value is reported as 282 pg/mL. In the case of “1002-K8: single substituted 1002 peptide (VQRWLIVKRIRK-NH2) [Peptide 1002-K8]”, the “IL1β Production” value is reported as 1632 pg/mL. “1002-A10: single substituted 1002 peptide (VQRWLIVWRARK-NH2) [Peptide 1002-A10]” was tested, and the “IL1β Production” value was 127 pg/mL. With “1018-K2: single substituted 1018 peptide (VKLIVAVRIWRR-NH2) [Peptide 1018-K2]” the “IL1β Production” value was 127 pg/mL.
